# Experimental data from PMC8597046, “Use of Mixture Dosing and Nonlinear Mixed Effect Modeling of Eight Environmental Contaminants in Rabbits to Improve Extrapolation Value of Toxicokinetic Data” (Environmental Health Perspectives, 2021).
# Like-named read-outs stand apart in the source and are kept apart here.
# Key:
# [1] = in vivo; conditions: female, rabbit, in vivo, iv
# Method in brief: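 Female New Zealand white rabbits received a compound mixture IV via ear-vein catheter; serum sampled sparsely (3 rabbits/time point) from 15 min to 28 d. Noncompartmental sparse-data analysis on mean profiles: linear-trapezoidal AUC, CL as dose/AUC0−inf, half-life from λZ, MRT and VSS.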
# [2] = in vivo; conditions: female, rabbit, in vivo, po
# Method in brief: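 Female New Zealand white rabbits (10-wk, 2.37±0.14kg) got the compound mixture IV via ear-vein catheter or orally into the mouth; serum sampled 15 min to 28 d, 3 (or 6 at 30 min) rabbits per time. Sparse-data noncompartmental analysis gave AUC (linear trapezoidal), CL or CL_F, half-life and F.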
# [3] = rabbit, in vivo; cited from earlier work
# [4] = New Zealand white (INRA 1777 line)
# [5] = New Zealand white, Serum concentration
# [6] = New Zealand white (INRA 1777 line), Serum concentration
compound,measurement,setting,value
"Clc1c(Cl)c(Cl)c(Cl)c(Cl)c1Cl [HCB, hexachlorobenzene]",AUC(0-inf),[1]; [4],4.52 µM·h
same,Cmax,[1]; [4],19 nM
same,MRT,[1]; [4],23 days
same,clearance,[1]; [4],0.85 mL/min/kg
same,half-life,[1]; [4],17.2 days
same,Vd,"[1]; New Zealand white (INRA 1777 line), VSS",28.1 L/kg
same,Vd,"[1]; New Zealand white (INRA 1777 line), VZ",30.5 L/kg
same,Serum concentration,"[1]; New Zealand white, 24 h",7.1 nM
same,Serum concentration,"[1]; New Zealand white, 168 h",6.4 nM
same,concentration at 0.6 h,[1]; [5],11 nM
same,concentration at 0.67 h,[1]; [5],19 nM
same,concentration at 0.77 h,[1]; [5],15 nM
same,concentration at 24 h,[1]; [5],8.2 nM
same,concentration at 24.03 h,[1]; [5],6.1 nM
same,concentration at 71.97 h,[1]; [5],4.2 nM
same,concentration at 72 h,[1]; [5],5.8 nM
same,concentration at 72.03 h,[1]; [5],6.5 nM
same,concentration at 167.92 h,[1]; [5],4.1 nM
same,concentration at 168 h,[1]; [5],5.2 nM
same,concentration at 671.83 h,[1]; [5],2.7 nM
same,concentration at 671.96 h,[1]; [5],2.3 nM
same,AUC(0-inf),[2]; [4],340 µM·h
same,CL/F,[2]; [4],1.33 mL/min/kg
same,Cmax,[2]; [4],505 nM
same,MRT,[2]; [4],46.5 days
same,Tmax,[2]; [4],1 days
same,Vd/F,[2]; [4],95 L/kg
same,bioavailability,[2]; [4],64%
same,half-life,[2]; [4],34 days
same,Serum concentration,"[2]; New Zealand white (INRA 1777 line), 24 h",370 nM
same,concentration at 0.57 h,[2]; [6],66 nM
same,concentration at 23.98 h,[2]; [6],370 nM
same,concentration at 24 h,[2]; [6],640 nM
same,concentration at 168 h,[2]; [6],290 nM
same,concentration at 671.96 h,[2]; [6],160 nM
same,Serum concentration,"[2]; New Zealand white, 72 h",400 nM
same,concentration at 71.96 h,[2]; [5],490 nM
same,concentration at 72 h,[2]; [5],220 nM
same,concentration at 168 h,[2]; [5],240 nM
same,concentration at 168.02 h,[2]; [5],240 nM
same,half-life,[3],32 days
